# Measured values published in patent publication US20030157040A1, “Use of ectoine or ectoine derivatives in cosmetic formulations” (Merck Patent GmbH, priority 1998, published 2003).
# “And” between values parts separate entries of the source, which are not always exact repeats. Identical values can stand only once. “Also recorded” adds a separate entry of the source.
# Test system: organotypical skin equivalents (Skinethic)
# Test: UV-induced formation of "sunburn cells" in organotypical skin equivalents
# Format: cell-based
# Conditions: for Number of counted "sunburn cells" in individual sections of the UV-irradiated skin equivalents / Number of counted "sunburn cells", mean M of six sections: pretreatment 24 h with ectoin 4%; for Number of counted "sunburn cells" in individual sections of the UV-irradiated skin equivalents: individual section
# Method: An investigation is carried-out to determine whether ectoin has an inhibiting action on the UV-induced formation of “sunburn cells” in organotypical skin equivalents.
# The investigations are carried out in accordance with the method described in A. R. Young, ‘The sunburn cell’, Photodermatology 4 (1987) 127-134. The cells used are organotypical skin models. Skinethic® skin equivalents from Skinethic, Nice, France (Lot. No. PK 2 DT 07 99 022A 0603) are used. Ectoin is weighed in directly prior to the start of the test and dissolved in the use concentration of 4% in EBSS (Gibco BRL; Order No. 15015 044). The organotypical skin equivalents (Skinethic) are, depending on the treatment group, incubated for 24 hours with or without ectoin (4%) at 37° C. and 5% CO2. The two treatment groups are then subjected to UV irradiation (0, 30, 60, 100, 200, 300 mJ/cm^2 of UVB) using a sun simulator (SOL 500, Dr. Hönle). Following incubation for a further 24 hours at 37° C. and 5% CO2, all skin equivalents are prepared histologically and investigated for induced “sunburn cells”.
smiles,measurement,setting,value
"CC1=N[C@H](C(=O)O)CCN1 [ectoin, (S)-1,4,5,6-tetrahydro-2-methyl-4-pyrimidine-carboxylic acid]","Number of counted ""sunburn cells"" in individual sections of the UV-irradiated skin equivalents",irradiation 0 mJ/cm^2 UVB,0
same,"Number of counted ""sunburn cells"", mean M of six sections","irradiation 0 mJ/cm^2 UVB, mean of six sections",0.00
same,"Number of counted ""sunburn cells"" in individual sections of the UV-irradiated skin equivalents",irradiation 30 mJ/cm^2 UVB,1 (2×) and 2 (2×) and 3 and 0
same,"Number of counted ""sunburn cells"", mean M of six sections","irradiation 30 mJ/cm^2 UVB, mean of six sections",1.50
same,"Number of counted ""sunburn cells"" in individual sections of the UV-irradiated skin equivalents",irradiation 60 mJ/cm^2 UVB,2 (2×) and 4 and 3 (3×)
same,"Number of counted ""sunburn cells"", mean M of six sections","irradiation 60 mJ/cm^2 UVB, mean of six sections (per section)",2.83±0.75 and 2.83
same,"Number of counted ""sunburn cells"" in individual sections of the UV-irradiated skin equivalents",irradiation 100 mJ/cm^2 UVB,9 (2×) and 10 (2×) and 8 (2×)
same,"Number of counted ""sunburn cells"", mean M of six sections","irradiation 100 mJ/cm^2 UVB, mean of six sections (per section)",9±0.89 and 9.00
same,"Number of counted ""sunburn cells"" in individual sections of the UV-irradiated skin equivalents",irradiation 200 mJ/cm^2 UVB,39 (2×) and 32 (2×) and 35 and 34
same,"Number of counted ""sunburn cells"", mean M of six sections","irradiation 200 mJ/cm^2 UVB, mean of six sections (per section)",35.17±3.19 and 35.17
same,"Number of counted ""sunburn cells"" in individual sections of the UV-irradiated skin equivalents",irradiation 300 mJ/cm^2 UVB,>100 (5×) and <100
same,"Number of counted ""sunburn cells"", mean M of six sections","irradiation 300 mJ/cm^2 UVB, mean of six sections",>100
same,dose-effect relationship between the rate of formation of SBCs and the administered UV dose,"pretreatment with ectoin versus no pretreatment, 0-300 mJ/cm^2 UVB",shifted significantly to higher UV dose ranges; also recorded: significantly into higher UV dose ranges
